Data on one molecule can be found in paper PMC5389515 (Nucleic Acids Research, 2016).

The target of test [1] is Trm11–Trm112 complex (Saccharomyces cerevisiae, UniProt Q12463, D291A). As to the kind of experiment: biochemical.
Test [2] addresses Trm11–Trm112 complex (Saccharomyces cerevisiae, UniProt Q12463). As to the kind of experiment: biochemical.

Chain of Trm11–Trm112 complex (Saccharomyces cerevisiae, UniProt Q12463) (Q12463 whole entry): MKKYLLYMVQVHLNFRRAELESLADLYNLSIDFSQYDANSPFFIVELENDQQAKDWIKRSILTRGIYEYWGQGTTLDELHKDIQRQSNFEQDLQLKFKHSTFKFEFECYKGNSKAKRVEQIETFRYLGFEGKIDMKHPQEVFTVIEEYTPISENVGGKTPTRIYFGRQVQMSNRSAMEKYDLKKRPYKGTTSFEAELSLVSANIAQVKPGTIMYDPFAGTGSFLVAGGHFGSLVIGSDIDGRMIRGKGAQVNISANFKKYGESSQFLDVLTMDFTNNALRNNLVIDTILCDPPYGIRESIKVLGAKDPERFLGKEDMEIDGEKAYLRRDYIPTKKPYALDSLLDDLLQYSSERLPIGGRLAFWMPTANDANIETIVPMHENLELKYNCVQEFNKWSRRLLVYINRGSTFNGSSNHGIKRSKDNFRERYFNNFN
Chain of Trm11–Trm112 complex (Saccharomyces cerevisiae, UniProt Q12463) (P53738 whole entry partner): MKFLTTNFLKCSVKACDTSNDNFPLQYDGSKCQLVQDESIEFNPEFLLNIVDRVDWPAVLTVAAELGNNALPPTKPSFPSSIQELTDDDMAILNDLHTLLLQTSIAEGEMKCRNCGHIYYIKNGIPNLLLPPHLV
Chain of Trm11–Trm112 complex (Saccharomyces cerevisiae, UniProt Q12463, D291A) (Q12463 whole entry D291A): as the sequence (Q12463 whole entry) above, with D291A counted along it
Chain of Trm11–Trm112 complex (Saccharomyces cerevisiae, UniProt Q12463, D291A) (P53738 whole entry partner): as the sequence (P53738 whole entry partner) above

For orientation: Kd means the equilibrium constant for the complex coming apart. Higher therefore signals a looser complex. On to `C[S+](CC[C@H](N)C(=O)O)C[C@H]1O[C@@H](n2cnc3c(N)ncnc32)[C@H](O)[C@@H]1O` (some centres unmarked) [SAM], for which the values for the Kd at Trm11–Trm112 complex [1] and at Trm11–Trm112 complex [2] were 3400 ± 600 nM and 1900 ± 300 nM, respectively.
